Results taken from PubChem BioAssay AID248 (DTP/NCI, 2004).
Where “and” joins values, the source holds several entries; their conditions need not be identical. Identical values can stand only once. Toxic doses and inconclusive results are not listed. No stated cut-off is given here; in the data, active means T/C of 150% or more; inactive means T/C below 125%.

Tested on: L1210 leukemia ip in BDF1 mice, survival T/C
Assay: NCI In Vivo Anticancer Drug Screen. Data for tumor model L1210 Leukemia (intraperitoneal) in B6D2F1 (BDF1) mice
Settings: endpoint: mean survival time, higher = longer survival
How it was run: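 Tumor was transplanted into mice, which were then dosed with test compound or vehicle alone. Survival was recorded for each group, and the treated figure was expressed relative to the control figure.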

[1] = dose: 100.0 mg/kg/injection, schedule: Q04DX002 (ip), vehicle: Klucel (hydroxypropylcellulose) (HPC)
[2] = dose: 200.0 mg/kg/injection, schedule: Q04DX002 (ip), vehicle: Klucel (hydroxypropylcellulose) (HPC)
[3] = dose: 100.0 mg/kg/injection, schedule: Q04DX003 (ip), vehicle: Klucel (hydroxypropylcellulose) (HPC)
[4] = dose: 100.0 mg/kg/injection, schedule: Q04DX003 (ip), vehicle: saline
[5] = dose: 200.0 mg/kg/injection, schedule: Q04DX003 (ip), vehicle: Klucel (hydroxypropylcellulose) (HPC)
[6] = dose: 200.0 mg/kg/injection, schedule: Q04DX003 (ip), vehicle: saline

Measured: T/C

O=[N+]([O-])c1ccc(Oc2cccc(C(F)(F)F)c2)c(Cl)c1
inactive: dose: 100.0 mg/kg/injection, schedule: Q01DX001 (ip), vehicle: Klucel (hydroxypropylcellulose) (HPC) 94 % of control | dose: 200.0 mg/kg/injection, schedule: Q01DX001 (ip), vehicle: Klucel (hydroxypropylcellulose) (HPC) 97 % of control | dose: 400.0 mg/kg/injection, schedule: Q01DX001 (ip), vehicle: Klucel (hydroxypropylcellulose) (HPC) 95 % of control

NC(=O)NC(=O)c1ccccc1
inactive: dose: 100.0 mg/kg/injection, schedule: Q01DX009 (ip), vehicle: saline 96 % of control | dose: 200.0 mg/kg/injection, schedule: Q01DX009 (ip), vehicle: saline 101 % of control | dose: 400.0 mg/kg/injection, schedule: Q01DX009 (ip), vehicle: saline 106 % of control

CC(=O)OC(C(O)C=O)C(O)C(O)CO (stereo not given) (tested in a mixture with another compound)
inactive: [1] 107 % of control | [2] 88 % of control

CCOP(=O)(Nc1ccc2c(c1)/C(=N/NC(N)=S)c1ccccc1-2)OCC
inactive: dose: 50.0 mg/kg/injection, schedule: Q01DX001 (ip), vehicle: carboxymethylcellulose (CMC) 100 % of control | dose: 100.0 mg/kg/injection, schedule: Q01DX001 (ip), vehicle: carboxymethylcellulose (CMC) 94 % of control | dose: 200.0 mg/kg/injection, schedule: Q01DX001 (ip), vehicle: carboxymethylcellulose (CMC) 96 % of control | dose: 400.0 mg/kg/injection, schedule: Q01DX001 (ip), vehicle: carboxymethylcellulose (CMC) 89 % of control

CC(C)(O)C(Cl)(Cl)Cl
inactive: [3] 101 % of control | [4] 98 % of control | [5] 95 % of control | [6] 100 % of control

O=S(=O)(NO)c1ccc(Cl)cc1
inactive: dose: 50.0 mg/kg/injection, schedule: Q01DX009 (ip), vehicle: saline sonified 98 % of control | dose: 100.0 mg/kg/injection, schedule: Q01DX009 (ip), vehicle: saline sonified 91 % of control | [4] 98 % of control | dose: 200.0 mg/kg/injection, schedule: Q01DX009 (ip), vehicle: saline sonified 95 % of control | [6] 94 % of control

O=[N+]([O-])c1cc(COc2ccc(Cl)c(Cl)c2)ccc1Cl
inactive: dose: 100.0 mg/kg/injection, schedule: Q01DX009 (ip), vehicle: Klucel (hydroxypropylcellulose) (HPC) 95 % of control | [1] 97 % of control and 98 % of control and 102 % of control | dose: 200.0 mg/kg/injection, schedule: Q01DX009 (ip), vehicle: Klucel (hydroxypropylcellulose) (HPC) 93 % of control | [2] 96 % of control and 97 % of control and 110 % of control | dose: 200.0 mg/kg/injection, schedule: Q04DX002 (ip), vehicle: saline 102 % of control | dose: 400.0 mg/kg/injection, schedule: Q01DX009 (ip), vehicle: Klucel (hydroxypropylcellulose) (HPC) 96 % of control | dose: 400.0 mg/kg/injection, schedule: Q04DX002 (ip), vehicle: Klucel (hydroxypropylcellulose) (HPC) 93 % of control and 99 % of control and 103 % of control | dose: 400.0 mg/kg/injection, schedule: Q04DX002 (ip), vehicle: saline 97 % of control

CCOC(=O)C(Cc1ccccc1)N=NNc1nc[nH]c1C(N)=O (stereo not given)
inactive: dose: 375.0 mg/kg/injection, schedule: Q01DX001 (ip), vehicle: carboxymethylcellulose (CMC) 96 % of control | dose: 500.0 mg/kg/injection, schedule: Q01DX001 (ip), vehicle: carboxymethylcellulose (CMC) 106 % of control

CN(C)c1ccc(/C=C/C=N/N=C/c2ccccc2O)cc1
inactive: dose: 75.0 mg/kg/injection, schedule: Q01DX001 (ip), vehicle: other 89 % of control | dose: 150.0 mg/kg/injection, schedule: Q01DX001 (ip), vehicle: other 94 % of control

Fc1cc(F)c(F)c(Oc2c(F)c(F)c(F)c(F)c2F)c1F
inactive: [3] 100 % of control | [5] 95 % of control | dose: 400.0 mg/kg/injection, schedule: Q04DX003 (ip), vehicle: Klucel (hydroxypropylcellulose) (HPC) 93 % of control

CC(=O)O[C@H]1[C@H]2O[C@]23[C@@H]2CC[C@@H]4C[C@@H](OC(=O)CCC(=O)O)CC[C@]4(C)[C@H]2CC[C@]3(C)[C@H]1c1ccc(=O)oc1
inactive: dose: 0.13 mg/kg/injection, schedule: Q01DX009 (ip), vehicle: Klucel (hydroxypropylcellulose) (HPC) 100 % of control | dose: 0.25 mg/kg/injection, schedule: Q01DX009 (ip), vehicle: Klucel (hydroxypropylcellulose) (HPC) 97 % of control | dose: 0.5 mg/kg/injection, schedule: Q01DX009 (ip), vehicle: Klucel (hydroxypropylcellulose) (HPC) 93 % of control | dose: 1.0 mg/kg/injection, schedule: Q01DX009 (ip), vehicle: Klucel (hydroxypropylcellulose) (HPC) 110 % of control
